Each compound was assayed against hNav1.7 (Homo sapiens (Human), UniProt Q15858) (assay: Tritiated sulfonamide competitive binding to membranes from cells expressing hNav1.7 and the β1 subunit). Details: 100 pM [3H]compound, 18 h, room temperature; inactivated state of NaV1.7 membrane binding; read-out: NaV1.7 Ligand Binding Assay (IC50).
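Also: displacement of the tritiated ligand from recombinant cell membranes, read by liquid scintillation counting of filter-bound radioactivity, nonspecific binding defined with 1 µM unlabelled compound.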

Chain of hNav1.7 (Q15858 other isoform, or with tags, fused parts or gaps): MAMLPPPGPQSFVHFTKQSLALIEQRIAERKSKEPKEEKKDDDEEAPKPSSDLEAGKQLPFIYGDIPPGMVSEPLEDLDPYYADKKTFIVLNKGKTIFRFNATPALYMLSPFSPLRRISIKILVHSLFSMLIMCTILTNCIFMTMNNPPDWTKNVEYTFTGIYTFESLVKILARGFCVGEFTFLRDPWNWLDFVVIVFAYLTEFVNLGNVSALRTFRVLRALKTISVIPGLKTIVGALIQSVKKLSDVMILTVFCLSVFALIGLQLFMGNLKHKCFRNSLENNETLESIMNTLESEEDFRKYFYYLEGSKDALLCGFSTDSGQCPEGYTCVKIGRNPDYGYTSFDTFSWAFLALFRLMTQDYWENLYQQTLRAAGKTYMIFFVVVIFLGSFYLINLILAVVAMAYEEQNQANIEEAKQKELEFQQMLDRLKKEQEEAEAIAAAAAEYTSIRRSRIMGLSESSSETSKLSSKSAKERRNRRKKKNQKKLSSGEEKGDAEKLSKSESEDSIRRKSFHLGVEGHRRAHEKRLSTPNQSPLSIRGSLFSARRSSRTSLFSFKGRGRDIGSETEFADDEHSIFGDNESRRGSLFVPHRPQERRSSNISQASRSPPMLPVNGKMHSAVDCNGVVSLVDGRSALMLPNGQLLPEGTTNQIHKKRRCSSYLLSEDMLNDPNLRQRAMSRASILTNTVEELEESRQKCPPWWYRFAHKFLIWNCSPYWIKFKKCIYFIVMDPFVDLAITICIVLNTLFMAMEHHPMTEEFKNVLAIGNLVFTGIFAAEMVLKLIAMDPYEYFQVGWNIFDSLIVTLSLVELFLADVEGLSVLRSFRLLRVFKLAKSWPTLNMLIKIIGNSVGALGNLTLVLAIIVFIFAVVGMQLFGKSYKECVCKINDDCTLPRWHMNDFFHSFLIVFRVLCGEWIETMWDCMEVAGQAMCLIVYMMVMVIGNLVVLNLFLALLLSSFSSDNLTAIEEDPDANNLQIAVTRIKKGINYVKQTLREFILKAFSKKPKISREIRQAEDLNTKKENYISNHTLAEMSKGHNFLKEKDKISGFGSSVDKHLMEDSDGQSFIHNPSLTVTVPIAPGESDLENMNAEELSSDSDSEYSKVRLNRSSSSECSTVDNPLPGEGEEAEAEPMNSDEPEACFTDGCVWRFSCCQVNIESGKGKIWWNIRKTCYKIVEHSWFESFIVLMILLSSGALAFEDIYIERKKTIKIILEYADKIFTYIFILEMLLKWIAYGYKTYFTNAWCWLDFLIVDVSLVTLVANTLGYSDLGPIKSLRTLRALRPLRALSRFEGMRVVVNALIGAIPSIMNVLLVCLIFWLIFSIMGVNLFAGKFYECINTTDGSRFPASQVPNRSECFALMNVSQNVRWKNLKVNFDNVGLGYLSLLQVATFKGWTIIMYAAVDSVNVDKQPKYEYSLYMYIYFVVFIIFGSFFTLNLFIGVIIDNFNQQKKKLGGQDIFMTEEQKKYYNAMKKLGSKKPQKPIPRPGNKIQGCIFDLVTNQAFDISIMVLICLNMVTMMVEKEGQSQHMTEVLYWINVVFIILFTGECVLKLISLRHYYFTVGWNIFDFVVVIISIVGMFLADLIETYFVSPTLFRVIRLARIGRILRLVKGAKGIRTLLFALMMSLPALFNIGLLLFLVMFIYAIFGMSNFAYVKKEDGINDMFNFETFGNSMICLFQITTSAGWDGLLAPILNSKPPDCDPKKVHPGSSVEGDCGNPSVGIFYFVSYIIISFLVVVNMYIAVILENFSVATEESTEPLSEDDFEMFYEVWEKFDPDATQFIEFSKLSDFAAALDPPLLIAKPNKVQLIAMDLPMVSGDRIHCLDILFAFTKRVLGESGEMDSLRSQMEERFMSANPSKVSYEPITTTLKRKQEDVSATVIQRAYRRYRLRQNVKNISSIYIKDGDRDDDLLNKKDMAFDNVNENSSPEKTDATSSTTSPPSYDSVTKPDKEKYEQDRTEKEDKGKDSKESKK
Chain of hNav1.7 (Q07699 19-218 partner): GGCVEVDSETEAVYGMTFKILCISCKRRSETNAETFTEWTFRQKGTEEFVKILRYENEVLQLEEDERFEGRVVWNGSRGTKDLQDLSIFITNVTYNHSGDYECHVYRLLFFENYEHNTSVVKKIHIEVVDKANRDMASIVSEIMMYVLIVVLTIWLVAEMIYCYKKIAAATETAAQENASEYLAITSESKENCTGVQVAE

| Structure (SMILES) | IC50 |
| --- | --- |
| O=S(=O)(Nc1nnc2cc(COc3cc(Cl)cc(OC(F)(F)F)c3)c(C3CC3)cn12)C1CC1 [Example 97, N-(7-((3-chloro-5-(trifluoromethoxy)phenoxy)methyl)-6-cyclopropyl-[1,2,4]triazolo[4,3-a]pyridin-3-yl)cyclopropanesulfonamide] | 3 nM |
| CS(=O)(=O)Nc1nnc2cc(OCC3CC4C5CCC(C5)C4C3)c(C3CC3)cn12 (stereo not shown) [Example 25] | 5.24 nM |
| CS(=O)(=O)Nc1nnc2cc(OC[C@@H]3C[C@H]4CC[C@@H](C3)N4C(c3ccccc3)c3ccccc3)c(C3CC3)cn12 [Example 123, N-(7-(((1R,3S,5S)-8-benzhydryl-8-azabicyclo[3.2.1]octan-3-yl)methoxy)-6-cyclopropyl-[1,2,4]triazolo[4,3-a]pyridin-3-yl)methanesulfonamide] | 17 nM |
| O=S(=O)(Nc1nnc2cc(OCC34CC5CC(CC(C5)C3)C4)c(C3CC3)cn12)N1CCC1 [Example 127, N-(7-(adamantan-1-ylmethoxy)-6-cyclopropyl-[1,2,4]triazolo[4,3-a]pyridin-3-yl)azetidine-1-sulfonamide] | 9 nM |
| CS(=O)(=O)Nc1nnc2cc(OC[C@H]3CC[C@H](C)CC3)c(C3CC3)cn12 [Example 33] | 18.4 nM |
| CC1(COc2cc3nnc(NS(=O)(=O)C4CC4)n3cc2C2CC2)CCC(F)(F)CC1 [Example 108, N-(6-cyclopropyl-7-((4,4-difluoro-1-methylcyclohexyl)methoxy)-[1,2,4]triazolo[4,3-a]pyridin-3-yl)cyclopropanesulfonamide] | 67 nM |
| CS(=O)(=O)Nc1nnc2cc(OC[C@H]3CC[C@H](C(F)(F)F)CC3)c(C3CC3)cn12 [Example 13, N-(6-cyclopropyl-7-(((trans)-4-(trifluoromethyl)cyclohexyl)-methoxy)-[1,2,4]triazolo[4,3-a]pyridin-3-yl)methanesulfonamide] | 22.6 nM |
| CS(=O)(=O)Nc1nnc2cc(O[C@@H]3CCCN(Cc4ccc(F)cc4Cl)C3)c(C3CC3)cn12 [Example 112, (R)—N-(7-((1-(2-chloro-4-fluorobenzyl)piperidin-3-yl)oxy)-6-cyclopropyl-[1,2,4]triazolo[4,3-a]pyridin-3-yl)methanesulfonamide] | 130 nM |
| C=C(C)c1cn2c(NS(C)(=O)=O)nnc2cc1OCC12CC3CC(CC(C3)C1)C2 [Example 8, N-(7-(adamantan-1-ylmethoxy)-6-(prop-1-en-2-yl)-[1,2,4]-triazolo[4,3-a]pyridin-3-yl)methanesulfonamide] | 51.2 nM |
| CC12CC3(C)CC(C)(C1)CC(COc1cc4nnc(NS(C)(=O)=O)n4cc1C1CC1)(C2)C3 [Example 122, N-(6-cyclopropyl-7-((3,5,7-trimethyladamantan-1-yl)methoxy)-[1,2,4]triazolo[4,3-a]pyridin-3-yl)methanesulfonamide] | 2 nM |
| C[C@@H](c1cc(Cl)cc(Cl)c1)N1CCC(COc2cc3nnc(NS(=O)(=O)C4CC4)n3cc2C2CC2)CC1 [Example 121] | 12 nM |
| CCc1cn2c(NS(=O)(=O)N3CCC3)nnc2cc1OCC12CC3CC(CC(C3)C1)C2 [Example 126, N-(7-(adamantan-1-ylmethoxy)-6-ethyl-[1,2,4]triazolo[4,3-a]pyridin-3-yl)azetidine-1-sulfonamide] | 31 nM |
| Cc1cc(Cl)cc(OCc2cc3nnc(NS(=O)(=O)C4CC4)n3cc2C2CC2)c1 [Example 103, N-(7-((3-chloro-5-methylphenoxy)methyl)-6-cyclopropyl-[1,2,4]triazolo[4,3-a]pyridin-3-yl)cyclopropanesulfonamide] | 6 nM |
| CC1(S(=O)(=O)Nc2nnc3cc(COc4cc(Cl)cc(OC(F)(F)F)c4)c(C4CC4)cn23)CC1 [Example 49, N-(7-((3-chloro-5-(trifluoromethoxy)phenoxy)methyl)-6-cyclopropyl-[1,2,4]triazolo[4,3-a]pyridin-3-yl)-1-methylcyclopropane-1-sulfonamide] | 3.94 nM |
| CC1(COc2cc3nnc(NS(C)(=O)=O)n3cc2C2CC2)CCN(Cc2cc(Cl)cc(Cl)c2)CC1 [Example 110, N-(6-cyclopropyl-7-((1-(3,5-dichlorobenzyl)-4-methylpiperidin-4-yl)methoxy)-[1,2,4]triazolopyridin-3-yl)methanesulfonamide] | 12 nM |
| CC1(COc2cc3nnc(NS(=O)(=O)C4CC4)n3cc2C2CC2)CCC2(CC1)CC2 [Example 114, N-(6-cyclopropyl-7-((6-methylspiro[2.5]octan-6-yl)methoxy)-[1,2,4]triazolo[4,3-a]pyridin-3-yl)cyclopropanesulfonamide] | 8 nM |
| CC1(COc2cc3nnc(NS(=O)(=O)C4CC4)n3cc2C2CC2)CCC(F)(F)CC1 [Example 53, N-(6-cyclopropyl-7-((4,4-difluoro-1-methylcyclohexyl)methoxy)-[1,2,4]triazolo[4,3-a]pyridin-3-yl)cyclopropanesulfonamide] | 67.4 nM |
| CS(=O)(=O)Nc1nnc2cc(OCC3(C(F)(F)F)CCCC3)c(C3CC3)cn12 [Example 92, N-(6-cyclopropyl-7-((1-(trifluoromethyl)cyclopentyl)methoxy)-[1,2,4]triazolo[4,3-a]pyridin-3-yl)methanesulfonamide] | 45 nM |
| CS(=O)(=O)Nc1nnc2cc(OCC3CCCCC3)c(Br)cn12 [Example 61, N-(6-bromo-7-(cyclohexylmethoxy)-[1,2,4]triazolo[4,3-a]pyridin-3-yl)methanesulfonamide] | 90 nM |

| Structure (SMILES) | IC50 |
| --- | --- |
| CC1(C)[C@H]2CC[C@H](COc3cc4nnc(NS(C)(=O)=O)n4cc3C3CC3)[C@@H]1C2 [Example 83] | 3 nM |
| CC1(S(=O)(=O)Nc2nnc3cc(COc4cc(Cl)cc(Cl)c4)c(C4CC4)cn23)CC1 [Example 50, N-(6-cyclopropyl-7-((3,5-dichlorophenoxy)methyl)-[1,2,4]-triazolo[4,3-a]pyridin-3-yl)-1-methylcyclopropane-1-sulfonamide] | 4.87 nM |
| O=S(=O)(Nc1nnc2cc(COc3cc(Cl)cc(OC(F)(F)F)c3)c(C3CC3)cn12)C1CC1 [Example 42, N-(7-((3-chloro-5-(trifluoromethoxy)phenoxy)methyl)-6-cyclopropyl-[1,2,4]triazolo[4,3-a]pyridin-3-yl)cyclopropanesulfonamide] | 2.81 nM |
| CC1(S(=O)(=O)Nc2nnc3cc(COc4cc(Cl)cc(OC(F)(F)F)c4)c(C4CC4)cn23)CC1 [Example 104, N-(7-((3-chloro-5-(trifluoromethoxy)phenoxy)methyl)-6-cyclopropyl-[1,2,4]triazolo[4,3-a]pyridin-3-yl)-1-methylcyclopropane-1-sulfonamide] | 4 nM |
| C=Cc1cn2c(NS(C)(=O)=O)nnc2cc1OCC1(C)CCCCC1 [Example 7, N-(7-((1-methylcyclohexyl)methoxy)-6-vinyl-[1,2,4]-triazolo[4,3-a]pyridin-3-yl)methanesulfonamide] | 65.3 nM |
| CC1(COc2cc3nnc(NS(C)(=O)=O)n3cc2C2CC2)CCN(C(c2ccccc2)c2ccccc2)CC1 [Example 116, N-(7-((1-benzhydryl-4-methylpiperidin-4-yl)methoxy)-6-cyclopropyl-[1,2,4]triazolo[4,3-a]pyridin-3-yl)methanesulfonamide] | 16 nM |
| O=S(=O)(Nc1nnc2cc(OC3CCC4(CCCCC4)CC3)c(C3CC3)cn12)C1CC1 [Example 35, N-(6-cyclopropyl-7-(spiro[5.5]undecan-3-yloxy)-[1,2,4]triazolo-[4,3-a]pyridin-3-yl)cyclopropanesulfonamide] | 51.3 nM |
| O=S(=O)(Nc1nnc2cc(COc3ccc(Cl)c(Cl)c3)c(C3CC3)cn12)C1CC1 [Example 94, N-(6-cyclopropyl-7-((3,4-dichlorophenoxy)methyl)-[1,2,4]-triazolo[4,3-a]pyridin-3-yl)cyclopropanesulfonamide] | 7 nM |
| CCc1cn2c(NS(=O)(=O)N3CC(F)C3)nnc2cc1OCC12CC3CC(CC(C3)C1)C2 [Example 15, N-(7-((3r,5r,7r)-adamantan-1-ylmethoxy)-6-ethyl-[1,2,4]triazolo[4,3-a]pyridin-3-yl)-3-fluoroazetidine-1-sulfonamide] | 138 nM |
| CS(=O)(=O)Nc1nnc2cc(OCC3CCCCC3)c(Br)cn12 [Example 6] | 90.3 nM |
| CS(=O)(=O)Nc1nnc2cc(OC[C@H]3CC[C@H](C)CC3)c(C3CC3)cn12 [Example 88] | 18 nM |
| CC1(S(=O)(=O)Nc2nnc3cc(OCC45CC6CC(CC(C6)C4)C5)c(C4CC4)cn23)CC1 [Example 19, N-(7-((3r,5r,7r)-adamantan-1-ylmethoxy)-6-cyclopropyl-[1,2,4]triazolo[4,3-a]pyridin-3-yl)-1-methylcyclopropane-1-sulfonamide] | 7.19 nM |
| C[C@@H](c1cc(Cl)cc(Cl)c1)N1CCC(C)(COc2cc3nnc(NS(C)(=O)=O)n3cc2C2CC2)CC1 [Example 117, (S)—N-(6-cyclopropyl-7-((1-(1-(3,5-dichlorophenyl)ethyl)-4-methylpiperidin-4-yl)methoxy)-[1,2,4]triazolo[4,3-a]pyridin-3-yl)methanesulfonamide] | 13 nM |
| CC1(S(=O)(=O)Nc2nnc3cc(OCC45CC6CC(CC(C6)C4)C5)c(C4CC4)cn23)CC1 [Example 74, N-(7-((3r,5r,7r)-adamantan-1-ylmethoxy)-6-cyclopropyl-[1,2,4]triazolo[4,3-a]pyridin-3-yl)-1-methylcyclopropane-1-sulfonamide] | 7 nM |
| C=Cc1cn2c(NS(C)(=O)=O)nnc2cc1OCC12CC3CC(CC(C3)C1)C2 [Example 128, N-(7-(adamantan-1-ylmethoxy)-6-vinyl-[1,2,4]triazolo[4,3-a]-pyridin-3-yl)methanesulfonamide] | 45 nM |
| O=S(=O)(Nc1nnc2cc(COc3ccc(Cl)c(Cl)c3)c(C3CC3)cn12)N1CCC1 [Example 41, N-(6-cyclopropyl-7-((3,4-dichlorophenoxy)methyl)-[1,2,4]triazolo[4,3-a]pyridin-3-yl)azetidine-1-sulfonamide] | 18.9 nM |
| CCc1cn2c(NS(=O)(=O)N3CC(F)C3)nnc2cc1OCC12CC3CC(CC(C3)C1)C2 [Example 70, N-(7-((3r,5r,7r)-adamantan-1-ylmethoxy)-6-ethyl-[1,2,4]triazolo[4,3-a]pyridin-3-yl)-3-fluoroazetidine-1-sulfonamide] | 140 nM |
| CS(=O)(=O)Nc1nnc2cc(OC[C@H]3CC[C@H](C)CC3)c(Br)cn12 [Example 32] | 86.6 nM |
